Patent US20170015654A1, “PYRIDAZINE COMPOUND” (TAKEDA PHARMACEUTICAL COMPANY LIMITED, priority 2014, published 2017)

What was measured:
SCD [1] = biological target: T1, SCD (Rattus norvegicus, UniProt P07308); experiment: Measurement of SCD inhibitory activity using microsome (TLC detection system); type: biochemical; conditions: 1 μM compound; rat liver microsome fraction; [14C]stearoyl-CoA; read-out: Rate of inhibition of SCD activity at compound concentration of 1 μM
T1 construct: the obtained precipitate other than the glycogen layer was used as the microsome fraction; from tissue; host or cells: rat liver microsome fraction
T1 sequence (P07308 1-358): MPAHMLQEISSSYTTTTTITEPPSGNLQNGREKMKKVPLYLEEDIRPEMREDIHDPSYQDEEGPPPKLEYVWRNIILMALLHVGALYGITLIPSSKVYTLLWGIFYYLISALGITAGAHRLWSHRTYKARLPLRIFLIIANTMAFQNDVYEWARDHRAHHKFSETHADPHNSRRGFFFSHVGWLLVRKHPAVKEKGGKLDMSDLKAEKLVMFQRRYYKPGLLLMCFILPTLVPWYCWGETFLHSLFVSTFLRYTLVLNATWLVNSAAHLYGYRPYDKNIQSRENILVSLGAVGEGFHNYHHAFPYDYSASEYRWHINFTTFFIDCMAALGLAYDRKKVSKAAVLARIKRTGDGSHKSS
Protocol: Testing Method: Measurement of SCD Inhibitory Activity Using Microsome (TLC Detection System)
A microsome fraction was produced and preserved as follows: first, the liver was excised from a rat, thoroughly washed with PBS and then chopped. A microsome preparation buffer (0.25 M sucrose, 10 mM Tris-HCl, pH 7.4, protease inhibitor cocktail (F. Hoffmann-La Roche, Ltd.)) was added to the chopped liver, and the cells were disrupted using a POLYTORON homogenizer on ice. The homogenate thus obtained by the disruption was centrifuged at 10,000×g at 4° C. for 30 minutes to collect a supernatant. The centrifugation operation described above was repeated again for the obtained supernatant to obtain a supernatant again. The obtained supernatant was centrifuged at 40,000×g at 4° C. for 60 minutes, and the obtained precipitate other than the glycogen layer was used as the microsome fraction. The protein concentration of the microsome fraction was measured using BCA Protein Assay Kit (Pierce/Thermo Fisher Scientific, Inc.), and the microsome fraction was cryopreserved at −80° C. until use.
The SCD inhibitory activity of each test compound was measured as follows: first, the test compound was diluted into 10 mM with DMSO to obtain a primary dilution. The obtained primary dilution was diluted 3/1000 by the addition of 3× buffer (300 mM potassium phosphate, pH 7.4, 450 mM KCl, 30 mM NaF, 9 mM MgCl2, 4.5 mM glutathione reduced form (Wako Pure Chemical Industries, Ltd.), 0.3% BSA fatty acid free (Sigma-Aldrich Corp.) to obtain a secondary dilution. The secondary dilution was dispensed at 10 μL/well to a polypropylene 96-deep well block. Then, the microsome fraction diluted using a microsome buffer (10 mM Tris-HCl, pH 7.5, 250 mM sucrose) was added thereto at 10 μL/well (containing 10 μg of the protein). An enzyme reaction solution containing [^14C]stearoyl-CoA (American Radiolabeled Chemicals, Inc.) diluted into […] using 9 mM NADH (Sigma-Aldrich Corp.) was further added thereto at 10 μL/well. 30 minutes thereafter, 2.5 N NaOH was added thereto at 10 μL/well. After the completion of the addition, the deep well block was provided with a plate seal and then left standing overnight in a heat sterilizer set to 55° C. Subsequently to the standing, fatty acid extraction from the sample was carried out in accordance with the Bligh & Dyer method. Specifically, 200 μL of a formic acid:methanol:chloroform (1:6:3) solution was added to the sample thus left standing, and then, the mixture was stirred while the single-layer state was maintained. Further, 120 μL of pure water was added to the mixture to separate it into two layers. After the separation, a 10 μL aliquot was separated from the lower layer, spotted on a reverse-phase TLC plate (RP-18, 1154230001, Merck KGaA), and developed with an acetonitrile:pure water:acetic acid (95:4.5:0.5) solution. After drying, the TLC plate was transferred to Imaging Plate (Fuji Photo Film) for 5 hours or longer. Detection was carried out using FLA7000 (GE Healthcare Japan Corp.), and the obtained spot images were digitalized using ImageQuant TL (GE Healthcare Japan Corp.) to determine the rate of inhibition of SCD activity (%).

SCD [2] = biological target: T2, SCD (Homo sapiens, UniProt O00767); experiment: Measurement of SCD inhibitory activity using human large intestine cancer cell line (HCT116 cell); type: cell-based; conditions: HCT-116; 1 μM compound; HCT116 cells; [14C]stearic acid, 3 hours; read-out: Rate of inhibition of SCD activity at compound concentration of 1 μM
T2 construct: HCT116 (ATCC (American Type Culture Collection)) was inoculated at 1×10^5 cells/well to a 96-well plate; host or cells: HCT116
T2 sequence (O00767 1-359): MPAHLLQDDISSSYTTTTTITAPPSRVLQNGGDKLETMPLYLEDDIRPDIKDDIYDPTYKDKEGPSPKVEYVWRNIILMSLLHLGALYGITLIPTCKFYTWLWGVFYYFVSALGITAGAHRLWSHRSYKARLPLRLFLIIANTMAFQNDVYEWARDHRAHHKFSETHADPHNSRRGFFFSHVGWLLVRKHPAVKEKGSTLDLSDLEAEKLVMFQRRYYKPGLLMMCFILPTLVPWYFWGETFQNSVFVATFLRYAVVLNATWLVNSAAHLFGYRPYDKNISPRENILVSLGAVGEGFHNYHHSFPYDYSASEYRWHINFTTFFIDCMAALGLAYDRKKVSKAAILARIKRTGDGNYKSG
Protocol: Measurement of SCD Inhibitory Activity Using Human Large Intestine Cancer Cell Line (HCT116 Cell)
HCT116 (ATCC (American Type Culture Collection)) was inoculated at 1×10^5 cells/well to a 96-well plate and cultured overnight in DMEM (Dulbecco's modified Eagle medium) containing 10% FBS (fetal bovine serum) (AusGeneX PTY LTD.). After the culture, each well was washed twice with phosphate-buffered saline (PBS) (200 μL). Then, a reaction medium (DMEM, penicillin/streptomycin, 0.3% BSA) containing 1.5 μM of the test compound was added thereto at 40 μL/well, and the plate was left standing for 15 minutes in a CO2 incubator (37° C.). A reaction medium containing 0.1 μCi of [^14C]stearic acid was added at 20 μL/well to the plate thus left standing, and the plate was left standing for 3 hours in a CO2 incubator (37° C.). Each well of the plate thus left standing was washed twice with 200 μL of PBS. Then, 2.5 N NaOH was added thereto at 20 μL/well, and the plate was provided with a plate seal and then incubated overnight in a heat sterilizer set to 55° C. A formic acid:methanol:chloroform (1:16:4) solution was added at 200 μL/well to the plate thus left standing. Further, the mixture in each well was separated into two layer by the addition of 200 μL of pure water. After the separation, a 10 μL aliquot was separated from the lower layer, spotted on a reverse-phase TLC plate (RP-18, 1154230001, Merck KGaA), and developed with an acetonitrile:pure water:acetic acid (95:4.5:0.5) solution. After drying, the TLC plate was transferred to Imaging Plate (Fuji Photo Film) for 5 hours or longer. Detection was carried out using FLA7000 (GE Healthcare Japan Corp.), and the obtained spot images were digitalized using ImageQuant TL (GE Healthcare Japan Corp.) to determine the rate of inhibition of SCD activity (%).

SMILES | inhibition at 1 µM (SCD [1]) | inhibition at 1 µM (SCD [2])
N#CC1(c2ccc(S(F)(F)(F)(F)F)cc2)CCN(c2ccc(-c3nnc(CO)o3)nn2)CC1 [Example 58, 1-(6-(5-(Hydroxymethyl)-1,3,4-oxadiazol-2-yl)pyridazin-3-yl)-4-(4-(pentafluorosulfanyl)phenyl)piperidine-4-carbonitrile] | 92% | 97%
OCc1noc(-c2ccc(N3CCC(c4ccc(C(F)(F)F)cc4)(C(F)(F)F)CC3)nn2)n1 [Example 82, (5-(6-(4-(Trifluoromethyl)-4-(4-(trifluoromethyl)phenyl)piperidin-1-yl)pyridazin-3-yl)-1,2,4-oxadiazol-3-yl)methanol] | 95% | 99%
OCc1nnc(-c2ccc(N3CCC(c4ccc(C(F)(F)F)cc4)(C(F)(F)F)CC3)nn2)o1 [Example 84, (5-(6-(4-(Trifluoromethyl)-4-(4-(trifluoromethyl)phenyl)piperidin-1-yl)pyridazin-3-yl)-1,3,4-oxadiazol-2-yl)methanol] | 93% | 99%
COC1(c2ccc(S(F)(F)(F)(F)F)cc2)CCN(c2ccc(-c3nnc(CO)o3)nn2)CC1 [Example 93, (5-(6-(4-Methoxy-4-(4-(pentafluorosulfanyl)phenyl)piperidin-1-yl)pyridazin-3-yl)-1,3,4-oxadiazol-2-yl)methanol] | 94% | 99%
N#CC1(c2ccc(S(F)(F)(F)(F)F)cc2)CCN(c2ccc(-c3nc(CO)ns3)nn2)CC1 [Example 108, 1-(6-(3-(Hydroxymethyl)-1,2,4-thiadiazol-5-yl)pyridazin-3-yl)-4-(4-(pentafluorosulfanyl)phenyl)piperidine-4-carbonitrile] | 95% | 100%

The next lines start with the values.

inhibition at 1 µM (SCD [1]) | inhibition at 1 µM (SCD [2]) | SMILES
93% | 96% | N#CC1(c2ccc(S(F)(F)(F)(F)F)cc2)CCN(c2ccc(-c3nnc(CO)s3)nn2)CC1 [Example 109, 1-(6-(5-(Hydroxymethyl)-1,3,4-thiadiazol-2-yl)pyridazin-3-yl)-4-(4-(pentafluorosulfanyl)phenyl)piperidine-4-carbonitrile]
94% | 98% | COC1(c2ccc(S(F)(F)(F)(F)F)cc2)CCN(c2ccc(-c3nc(CO)ns3)nn2)CC1 [Example 110, (5-(6-(4-Methoxy-4-(4-(pentafluorosulfanyl)phenyl)piperidin-1-yl)pyridazin-3-yl)-1,2,4-thiadiazol-3-yl)methanol]
96% | 101% | COC1(c2ccc(S(F)(F)(F)(F)F)cc2)CCN(c2ccc(-c3nnc(CO)s3)nn2)CC1 [Example 111, (5-(6-(4-Methoxy-4-(4-(pentafluorosulfanyl)phenyl)piperidin-1-yl)pyridazin-3-yl)-1,3,4-thiadiazol-2-yl)methanol]
96% | 97% | OCc1nsc(-c2ccc(N3CCC(c4ccc(C(F)(F)F)cc4)(C(F)(F)F)CC3)nn2)n1 [Example 112, (5-(6-(4-(Trifluoromethyl)-4-(4-(trifluoromethyl)phenyl)piperidin-1-yl)pyridazin-3-yl)-1,2,4-thiadiazol-3-yl)methanol]
95% | 99% | OCc1nnc(-c2ccc(N3CCC(c4ccc(C(F)(F)F)cc4)(C(F)(F)F)CC3)nn2)s1 [Example 113, (5-(6-(4-(Trifluoromethyl)-4-(4-(trifluoromethyl)phenyl)piperidin-1-yl)pyridazin-3-yl)-1,3,4-thiadiazol-2-yl)methanol]
